Measured values reported in patent US20230086703A1, “N-(4-(5-chloropyridin-3-yl)phenyl)-2-(2-(cyclopropanesulfonamido)pyrimidin-4-yl) butanamide derivatives and related compounds as human CTPS1 inhibitors for the treatment of proliferative diseases” (Step Pharma S.A.S., priority 2019, published 2023).
Like-named read-outs stand apart in the source and are kept apart here.

Legend:
human CTPS1 [1] = target: T1, human CTPS1 (Homo sapiens, UniProt P17812); test: Human CTPS1 enzyme inhibition, ADP-Glo Max assay; format: biochemical
T1 construct: FLAG (with GG linker); His8 (with GG linker); purchased Proteros biostructures GmbH
T1 sequence (P17812 1-591): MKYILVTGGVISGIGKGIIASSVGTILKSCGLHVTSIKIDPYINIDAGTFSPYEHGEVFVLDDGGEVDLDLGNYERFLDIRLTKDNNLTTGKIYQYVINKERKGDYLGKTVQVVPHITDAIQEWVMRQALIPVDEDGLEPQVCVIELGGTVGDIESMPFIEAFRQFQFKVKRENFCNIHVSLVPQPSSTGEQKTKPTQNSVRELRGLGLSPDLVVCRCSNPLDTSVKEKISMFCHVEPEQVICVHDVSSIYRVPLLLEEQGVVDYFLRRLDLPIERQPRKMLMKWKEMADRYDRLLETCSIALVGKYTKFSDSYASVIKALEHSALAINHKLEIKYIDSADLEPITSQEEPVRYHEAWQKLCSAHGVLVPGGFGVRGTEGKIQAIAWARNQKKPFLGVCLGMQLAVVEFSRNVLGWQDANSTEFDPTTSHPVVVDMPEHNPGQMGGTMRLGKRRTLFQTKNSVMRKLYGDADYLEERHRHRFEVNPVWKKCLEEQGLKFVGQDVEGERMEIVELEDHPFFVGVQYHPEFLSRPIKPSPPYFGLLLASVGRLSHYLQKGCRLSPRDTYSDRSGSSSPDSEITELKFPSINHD
How it was run: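 Enzyme preincubated with compound for 10 min at 25 °C in 50 mM Tris pH 8.0, 10 mM MgCl2, 0.01% Tween-20, 2 mM L-cysteine. ATP-to-ADP conversion detected by ADP-Glo Max luminescence after 60 min depletion and 60 min development steps. Percentage inhibition calculated per concentration.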

human CTPS1 [2] = target: T1, human CTPS1; test: RapidFire/MS-based enzyme selectivity assay (human CTPS1 versus CTPS2), CTPS1 isoform; format: biochemical
How it was run: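 Full-length C-terminal FLAG-His-tagged CTPS1 (1-591) was preincubated 10 min at 25 °C with compound in HEPES pH 8.0 buffer with MgCl2, KCl, DTT and Tween-20. Reactions were started with a 2× mix of ATP 0.3 mM, UTP 0.2 mM, GTP 0.07 mM and L-glutamine 0.1 mM, and run in the linear phase at 25 °C. IC50 comes from the RapidFire-MS ratio of CTP to 13C9-15N3-CTP.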

[3] = Table 12, ADP-Glo Max assay, read-out: CTPS1 (Human CTPS1 Enzyme Inhibition data grouped by potency range)
[4] = RapidFire/MS IC50 values of CTPS1 and CTPS2, Table 17
[5] = RapidFire/MS IC50 values of CTPS1 and CTPS2, Table 15
[6] = Table 16, human CTPS1 over human CTPS2, RapidFire/MS IC50 values

IC50 (human CTPS1 [1]; [3]) | Selectivity (fold selectivity between CTPS1 and CTPS2) (human CTPS1 [2]; [4]) | Selectivity (fold selectivity between CTPS1 and CTPS2) (human CTPS1 [2]; [5]) | Structure (SMILES) | also measured
< 100 nM | +++ (>60 fold (+++)) |  | CCOc1cncc(-c2ccc(NC(=O)C3(c4ccnc(NS(=O)(=O)C5CC5)n4)CCN(S(=O)(=O)C4CC4)CC3)nc2)n1 [P290] | 
< 100 nM | +++ (>60 fold (+++)) |  | CCOc1cncc(-c2ccc(NC(=O)C3(c4nccc(NS(=O)(=O)C5CC5)n4)CCN(S(C)(=O)=O)CC3)nc2)n1 [P316] | 
< 100 nM | +++ (>60 fold (+++)) |  | CCOc1cncc(-c2ccc(NC(=O)C3(c4ccnc(NS(=O)(=O)C5CC5)n4)CCN(S(=O)(=O)CC)CC3)nc2)n1 [P289] | 
< 100 nM | +++ (>60 fold (+++)) |  | CCOc1cncc(-c2ccc(NC(=O)C3(c4ccnc(NS(=O)(=O)C5CC5)n4)CCC(N4CCOCC4)CC3)nc2)n1 (centres unmarked) [P306] | 
100 to 1000 nM | +++ (>60 fold (+++)) |  | CCOc1cncc(-c2ccc(NC(=O)C3(c4ccnc(NS(=O)(=O)C5CC5)n4)CCC(N4CCOCC4)CC3)nc2)n1 (centres unmarked) [P305] | 
 |  | ++ (>30-60 fold (++)) | CCOc1cncc(-c2ccc(NC(=O)C(F)(CC)c3ccnc(NS(=O)(=O)C4CC4)n3)nc2)n1 (centres unmarked) [P112, 2-(2-(Cyclopropanesulfonamido)pyrimidin-4-yl)-N-(5-(6-ethoxypyrazin-2-yl)pyridin-2-yl)-2-fluorobutanamide] | IC50 (human CTPS1 [1]; ADP-Glo Max assay, human full length CTPS1, read-out: CTPS1 (Human CTPS1 Enzyme Inhibition data grouped by potency range, IC50)): < 100 nM
< 100 nM | +++ (>60 fold (+++)) |  | CCOc1cncc(-c2ccc(NC(=O)C3(c4ccnc(NS(=O)(=O)C5CC5)n4)CCC(N(C)CCOC)CC3)nc2)n1 (centres unmarked) [P308] | 
1000 to 10000 nM | + (2-30 fold (+)) |  | CCOc1cncc(-c2ccc(NC(=O)C3(c4ccnc(NS(=O)(=O)C5CC5)n4)CCC(N(C)C)CC3)nc2)n1 (single isomer, unassigned) [P230, 1-(2-(cyclopropanesulfonamido)pyrimidin-4-yl)-4-(dimethylamino)-N-(5-(6-ethoxypyrazin-2-yl)pyridin-2-yl)cyclohexane-1-carboxamide] | 
< 100 nM | +++ (>60 fold (+++)) |  | CCOc1cncc(-c2ccc(NC(=O)C3(c4ccnc(NS(=O)(=O)CC)n4)CCN(S(=O)(=O)CC)CC3)nc2)n1 [P298] | 
< 100 nM | +++ (>60 fold (+++)) |  | CCS(=O)(=O)N1CCC(C(=O)Nc2ccc(-c3cncc(C4CC4)n3)cn2)(c2nccc(NS(=O)(=O)C3CC3)n2)CC1 [P317] | 
< 100 nM | +++ (>60 fold (+++)) |  | CCOc1cncc(-c2ccc(NC(=O)C3(c4ccnc(NS(=O)(=O)C5CC5)n4)CCC(N(C)C4COC4)CC3)nc2)n1 (centres unmarked) [P307] | 
 |  | ++ (>30-60 fold (++)) | CCOc1cncc(-c2ccc(NC(=O)C(C)(C)c3ccnc(NS(C)(=O)=O)n3)nc2)n1 [P76, N-(5-(6-ethoxypyrazin-2-yl)pyridin-2-yl)-2-methyl-2-(2-(methylsulfonamido)pyrimidin-4-yl)propanamide] | 
 |  | + (2-30 fold (+)) | CCC(C(=O)Nc1ccc(-c2cncc(C(F)(F)F)n2)cc1)c1ccnc(NS(=O)(=O)C2CC2)n1 (centres unmarked) [P103, 2-(2-(cyclopropanesulfonamido)pyrimidin-4-yl)-N-(4-(6-(trifluoromethyl)pyrazin-2-yl)phenyl)butanamide] | 
 |  |  | COc1cncc(-c2ccc(C(=O)NC(C)(C)c3csc(NS(=O)(=O)C4CC4)n3)cc2)n1 [R54, N-(2-(2-(cyclopropanesulfon-amido)thiazol-4-yl)propan-2-yl)-4-(6-methoxypyrazin-2-yl)benzamide] | Selectivity (fold selectivity between CTPS1 and CTPS2) (human CTPS1 [2]; [6]): + (2-30 fold (+))
 |  |  | CCC(NC(=O)c1ccc(-c2cncc(OC(C)C)n2)cc1F)c1csc(NS(=O)(=O)C2CC2)n1 (racemic) [R64, N-(1-(2-(cyclopropanesulfonamido)thiazol-4-yl)propyl)-2-fluoro-4-(6-isopropoxypyrazin-2-yl)benzamide] | Selectivity (fold selectivity between CTPS1 and CTPS2) (human CTPS1 [2]; [6]): ++ (>30-60 fold (++))
 |  | + (2-30 fold (+)) | CC(C)Oc1cncc(-c2ccc(NC(=O)C(C)(C)c3ccnc(NS(=O)(=O)C4CC4)n3)c(F)c2)n1 [P39] | 
 |  | + (2-30 fold (+)) | CC(C)(C(=O)Nc1ccc(-c2cncc(C3CC3)n2)cc1F)c1ccnc(NS(=O)(=O)C2CC2)n1 [P128, 2-(2-(cyclopropanesulfonamido)pyrimidin-4-yl)-N-(4-(9-cyclopropylpyrazin-2-yl)-2-fluorophenyl)-2-methylpropanamide] | 
 |  | ++ (>30-60 fold (++)) | CCOc1cncc(-c2ccc(NC(=O)C(C)(C)c3nc(NS(=O)(=O)C4CC4)ncc3F)cc2)n1 [P68, 2-(2-(cyclopropanesulfonamido)-5-fluropyrimidin-4-yl)-N-(4-(9-ethoxypyrazin-2-yl)phenyl)-2-methylpropanamide] | 
 |  | +++ (>60 fold (+++)) | CCOc1cncc(-c2ccc(NC(=O)C(F)(CC)c3ccnc(NS(=O)(=O)C4CC4)n3)nc2)n1 (single isomer, unassigned) [P114, 2-(2-(Cyclopropanesulfonamido)pyrimidin-4-yl)-N-(5-(6-ethoxypyrazin-2-yl)pyridin-2-yl)-2-fluorobutanamide] | 
 |  | + (2-30 fold (+)) | CCOc1cncc(-c2ccc(NC(=O)C(CC)c3ccnc(NS(=O)(=O)C4CC4)n3)c(F)c2)n1 (centres unmarked) [P96, 2-(2-(cyclopropanesulfonamido)pyrimidin-4-yl)-N-(4-(6-ethoxypyrazin-2-yl)-2-fluorophenyl)butanamide] | 
 |  | +++ (>60 fold (+++)) | CCC(C(=O)Nc1ccc(-c2cncc(OC(C)C)n2)cn1)c1ccnc(NS(=O)(=O)C2CC2)n1 (centres unmarked) [P89, 2-(2-(cyclopropanesulfonamido)pyrimidin-4-yl)-N-(5-(6-isopropoxypyrazin-2-yl)pyridin-2-yl)butanamide] | 
 |  | +++ (>60 fold (+++)) | CCOc1cncc(-c2ccc(C(=O)NC(CC)c3ccnc(NS(=O)(=O)C4CC4)n3)c(F)c2)n1 (centres unmarked) [P216, N-(1-(2-(cyclopropanesulfonamido)pyrimidin-4-yl)propyl)-4-(6-ethoxypyrazin-2-yl)-2-fluorobenzamide] | 
 |  | +++ (>60 fold (+++)) | CCOc1cncc(-c2ccc(NC(=O)C(CC)c3cncc(NS(=O)(=O)C4CC4)n3)nc2)n1 (centres unmarked) [P201, 2-(6-(cyclopropanesulfonamido)pyrazin-2-yl)-N-(5-(6-ethoxypyrazin-2-yl)pyridin-2-yl)butanamide] | 
 |  | ++ (>30-60 fold (++)) | CCOc1cncc(-c2ccc(NC(=O)C(CC)c3cccc(NS(=O)(=O)C4CC4)n3)cc2)n1 (centres unmarked) [P191, 2-(6-(cyclopropanesulfonamido)pyridin-2-yl)-N-(4-(6-ethoxypyrazin-2-yl)phenyl)butanamide] | 
 |  |  | Cc1cc(-c2cncc(C(F)(F)F)n2)ccc1C(=O)NC1(c2csc(NS(=O)(=O)C3CC3)n2)CC1 [R83, N-(1-(2-(cyclopropanesulfon-amido)thiazol-4-yl)cyclopropyl)-2-methyl-4-(6-(trifluoromethyl)pyrazin-2-yl)benzamide] | Selectivity (fold selectivity between CTPS1 and CTPS2) (human CTPS1 [2]; [6]): +++ (>60 fold (+++))
 | +++ (>60 fold (+++)) |  | CCOc1cncc(-c2ccc(NC(=O)C3(c4ccnc(NS(=O)(=O)N(C)C)n4)CCOCC3)nc2)n1 [P248] | 
 |  | ++ (>30-60 fold (++)) | CC(C)c1cncc(-c2ccc(NC(=O)C(C)(C)c3ccnc(NS(=O)(=O)C4CC4)n3)cc2)n1 [P132, 2-(2-(cyclopropanesulfonamido)pyrimidin-4-yl)-N-(4-(6-isopropylpyrazin-2-yl)phenyl)-2-methylpropanamide] | 
 |  | +++ (>60 fold (+++)) | CCOc1cncc(-c2ccc(NC(=O)C(C)(OC)c3cncc(NS(=O)(=O)C4CC4)n3)nc2)n1 (single isomer, unassigned) [P205a, 2-(6-(cyclopropanesulfonamido)pyrazin-2-yl)-N-(5-(6-ethoxypyrazin-2-yl)pyridin-2-yl)-2-methoxypropanamide] | 

Structure (SMILES) | IC50 (human CTPS1 [1]; [3]) | Selectivity (fold selectivity between CTPS1 and CTPS2) (human CTPS1 [2]; [4]) | Selectivity (fold selectivity between CTPS1 and CTPS2) (human CTPS1 [2]; [5]) | also measured
CCOc1cncc(-c2ccc(NC(=O)C3(c4nccc(NS(=O)(=O)C5CC5)n4)CCN(CC#N)CC3)nc2)n1 [P294] | < 100 nM | +++ (>60 fold (+++)) |  | 
